The values below come from the NIST ThermoML archive (doi:10.1021/je501162f).

Numbers after ± are expanded uncertainties.

For one series the following is noted: 323.15 K; 101.33 kPa; Liquid.
In the case of `CCCCCCCCn1cc[n+](C)c1.NCC(=O)[O-]` [1-methyl-3-octylimidazolium glycinate], the viscosity was found to be 82.4 ± 2.5 mPa·s.

Consider `CCCCCCCCn1cc[n+](C)c1.O=C([O-])[C@@H]1CCCN1` [1-methyl-3-octyl-1H-imidazol-3-ium L-prolinate], for which the viscosity is listed as 211 ± 13 mPa·s.

Still in this series, the particulars now being: 323.15 K; 101.33 kPa; Liquid; Vibrating tube method.
In the case of `CCCCCCCC[n+]1ccn(C)c1.N[C@@H](CO)C(=O)[O-]` [1-methyl-3-octyl-1H-imidazol-3-ium L-serinate], the mass density was 1056.1 ± 2.2 kg/m3.

As for `CCCCCCCC[n+]1ccn(C)c1.NC(=O)C[C@H](N)C(=O)[O-]` [1-methyl-3-octylimidazolium L-asparaginate], the mass density was 1052.2 ± 2.2 kg/m3.

For the compound `CCCCCCCC[n+]1ccn(C)c1.C[C@H](N)C(=O)[O-]` [1-methyl-3-octylimidazolium L-alaninate], the mass density came to 975.8 ± 2.1 kg/m3.

With `CCCCCCCCn1cc[n+](C)c1.NCC(=O)[O-]` [1-methyl-3-octylimidazolium glycinate], the mass density worked out at 1023 ± 2.2 kg/m3.

For the compound `CCCCCCCCn1cc[n+](C)c1.O=C([O-])[C@@H]1CCCN1` [1-methyl-3-octyl-1H-imidazol-3-ium L-prolinate], the mass density was 1045.5 ± 2.2 kg/m3.

The same series, now with this note: 323.15 K; Liquid; Pendant drop shape.
With `CCCCCCCC[n+]1ccn(C)c1.N[C@@H](CO)C(=O)[O-]` [1-methyl-3-octyl-1H-imidazol-3-ium L-serinate], the surface tension liquid-gas was determined as 31.6 ± 0.7 mN/m.

Consider `CCCCCCCC[n+]1ccn(C)c1.NC(=O)C[C@H](N)C(=O)[O-]` [1-methyl-3-octylimidazolium L-asparaginate], for which the surface tension liquid-gas is recorded as 31.99 ± 0.66 mN/m.

Consider `CCCCCCCC[n+]1ccn(C)c1.C[C@H](N)C(=O)[O-]` [1-methyl-3-octylimidazolium L-alaninate], for which the surface tension liquid-gas was 26.61 ± 0.62 mN/m.

Take `CCCCCCCCn1cc[n+](C)c1.NCC(=O)[O-]` [1-methyl-3-octylimidazolium glycinate]: the surface tension liquid-gas was 31.35 ± 0.66 mN/m.

In the case of `CCCCCCCCn1cc[n+](C)c1.O=C([O-])[C@@H]1CCCN1` [1-methyl-3-octyl-1H-imidazol-3-ium L-prolinate], the surface tension liquid-gas stood at 28.17 ± 0.63 mN/m.

The same series, now with this note: 333.15 K; 101.33 kPa; Liquid.
Regarding `CCCCCCCC[n+]1ccn(C)c1.N[C@@H](CO)C(=O)[O-]` [1-methyl-3-octyl-1H-imidazol-3-ium L-serinate], the viscosity stood at 149.6 ± 7.2 mPa·s.

Regarding `CCCCCCCC[n+]1ccn(C)c1.NC(=O)C[C@H](N)C(=O)[O-]` [1-methyl-3-octylimidazolium L-asparaginate], the viscosity came out at 333.3 ± 26 mPa·s.

For the compound `CCCCCCCC[n+]1ccn(C)c1.C[C@H](N)C(=O)[O-]` [1-methyl-3-octylimidazolium L-alaninate], the viscosity is on record as 65.7 ± 1.7 mPa·s.

Take `CCCCCCCCn1cc[n+](C)c1.NCC(=O)[O-]` [1-methyl-3-octylimidazolium glycinate]: the viscosity is listed as 52.3 ± 1.3 mPa·s.

On to `CCCCCCCCn1cc[n+](C)c1.O=C([O-])[C@@H]1CCCN1` [1-methyl-3-octyl-1H-imidazol-3-ium L-prolinate], for which the viscosity was found to be 120.3 ± 5 mPa·s.

Staying with this series, now noted: 333.15 K; 101.33 kPa; Liquid; Vibrating tube method.
For `CCCCCCCC[n+]1ccn(C)c1.N[C@@H](CO)C(=O)[O-]` [1-methyl-3-octyl-1H-imidazol-3-ium L-serinate], the mass density came to 1049.7 ± 2.2 kg/m3.

With `CCCCCCCC[n+]1ccn(C)c1.NC(=O)C[C@H](N)C(=O)[O-]` [1-methyl-3-octylimidazolium L-asparaginate], the mass density was 1048.6 ± 2.2 kg/m3.

As for `CCCCCCCC[n+]1ccn(C)c1.C[C@H](N)C(=O)[O-]` [1-methyl-3-octylimidazolium L-alaninate], the mass density stood at 972.9 ± 2.1 kg/m3.

For `CCCCCCCCn1cc[n+](C)c1.NCC(=O)[O-]` [1-methyl-3-octylimidazolium glycinate], the mass density is 1016.8 ± 2.2 kg/m3.

As for `CCCCCCCCn1cc[n+](C)c1.O=C([O-])[C@@H]1CCCN1` [1-methyl-3-octyl-1H-imidazol-3-ium L-prolinate], the mass density is reported as 1039.1 ± 2.2 kg/m3.

The same series, now with this note: 333.15 K; Liquid; Pendant drop shape.
With `CCCCCCCC[n+]1ccn(C)c1.N[C@@H](CO)C(=O)[O-]` [1-methyl-3-octyl-1H-imidazol-3-ium L-serinate], the surface tension liquid-gas turned out to be 31 ± 0.7 mN/m.

On to `CCCCCCCC[n+]1ccn(C)c1.NC(=O)C[C@H](N)C(=O)[O-]` [1-methyl-3-octylimidazolium L-asparaginate], for which the surface tension liquid-gas worked out at 31.73 ± 0.66 mN/m.

Consider `CCCCCCCC[n+]1ccn(C)c1.C[C@H](N)C(=O)[O-]` [1-methyl-3-octylimidazolium L-alaninate], for which the surface tension liquid-gas stood at 26.11 ± 0.62 mN/m.

In the case of `CCCCCCCCn1cc[n+](C)c1.NCC(=O)[O-]` [1-methyl-3-octylimidazolium glycinate], the surface tension liquid-gas amounted to 30.07 ± 0.65 mN/m.

As to `CCCCCCCCn1cc[n+](C)c1.O=C([O-])[C@@H]1CCCN1` [1-methyl-3-octyl-1H-imidazol-3-ium L-prolinate], the surface tension liquid-gas stood at 27.76 ± 0.63 mN/m.

Staying with this series, now noted: 343.15 K; 101.33 kPa; Liquid.
Turning to `CCCCCCCC[n+]1ccn(C)c1.N[C@@H](CO)C(=O)[O-]` [1-methyl-3-octyl-1H-imidazol-3-ium L-serinate], the viscosity was 88.9 ± 2.9 mPa·s.

As to `CCCCCCCC[n+]1ccn(C)c1.NC(=O)C[C@H](N)C(=O)[O-]` [1-methyl-3-octylimidazolium L-asparaginate], the viscosity came out at 182.6 ± 10 mPa·s.

On to `CCCCCCCC[n+]1ccn(C)c1.C[C@H](N)C(=O)[O-]` [1-methyl-3-octylimidazolium L-alaninate], for which the viscosity was found to be 42.9 ± 1.1 mPa·s.

For the compound `CCCCCCCCn1cc[n+](C)c1.NCC(=O)[O-]` [1-methyl-3-octylimidazolium glycinate], the viscosity is given as 34.9 ± 0.9 mPa·s.

Turning to `CCCCCCCCn1cc[n+](C)c1.O=C([O-])[C@@H]1CCCN1` [1-methyl-3-octyl-1H-imidazol-3-ium L-prolinate], the viscosity turned out to be 73.2 ± 2.1 mPa·s.

Still in this series, the particulars now being: 343.15 K; 101.33 kPa; Liquid; Vibrating tube method.
In the case of `CCCCCCCC[n+]1ccn(C)c1.N[C@@H](CO)C(=O)[O-]` [1-methyl-3-octyl-1H-imidazol-3-ium L-serinate], the mass density is recorded as 1043.3 ± 2.2 kg/m3.

In the case of `CCCCCCCC[n+]1ccn(C)c1.NC(=O)C[C@H](N)C(=O)[O-]` [1-methyl-3-octylimidazolium L-asparaginate], the mass density came to 1044.1 ± 2.2 kg/m3.

`CCCCCCCC[n+]1ccn(C)c1.C[C@H](N)C(=O)[O-]` [1-methyl-3-octylimidazolium L-alaninate]: the mass density is 969.3 ± 2.1 kg/m3.

As to `CCCCCCCCn1cc[n+](C)c1.NCC(=O)[O-]` [1-methyl-3-octylimidazolium glycinate], the mass density came to 1010.6 ± 2.1 kg/m3.

Consider `CCCCCCCCn1cc[n+](C)c1.O=C([O-])[C@@H]1CCCN1` [1-methyl-3-octyl-1H-imidazol-3-ium L-prolinate], for which the mass density is 1032.8 ± 2.2 kg/m3.

Staying with this series, now noted: 343.15 K; Liquid; Pendant drop shape.
As to `CCCCCCCC[n+]1ccn(C)c1.N[C@@H](CO)C(=O)[O-]` [1-methyl-3-octyl-1H-imidazol-3-ium L-serinate], the surface tension liquid-gas is reported as 30.01 ± 0.65 mN/m.

As for `CCCCCCCC[n+]1ccn(C)c1.NC(=O)C[C@H](N)C(=O)[O-]` [1-methyl-3-octylimidazolium L-asparaginate], the surface tension liquid-gas stood at 30.88 ± 0.66 mN/m.

Take `CCCCCCCC[n+]1ccn(C)c1.C[C@H](N)C(=O)[O-]` [1-methyl-3-octylimidazolium L-alaninate]: the surface tension liquid-gas is 25.55 ± 0.62 mN/m.

For `CCCCCCCCn1cc[n+](C)c1.NCC(=O)[O-]` [1-methyl-3-octylimidazolium glycinate], the surface tension liquid-gas was found to be 28.75 ± 0.64 mN/m.

In general, viscosity refers to the internal friction of a fluid under shear. The mass density is mass per unit of volume. By surface tension liquid-gas is commonly meant the force per length acting along the surface.
